# Measured values taken from US20190352276A1, “INHIBITORS OF BRUTON'S TYROSINE KINASE” (Joint Stock Company "Biocad", priority 2016, published 2019).
# What was measured:
# [1] = Permeability through the monolayer of Caco-2 cells; format: in vitro ADME; conditions: human; for Papp A→B at 2 h, 10 μM / Papp B→A at 2 h, 10 μM: 2 h at 37° C.; for efflux ratio at 2 h, 10 μM: read-out: efflux (Papp B-A/Papp A-B)
# Method in brief: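 Bidirectional transport measured over 7200 s with 10 μM compound, using an apical buffer at pH 6.5 and a basolateral Hanks/HEPES/glucose buffer at pH 7.4 containing 1% BSA. Monolayers were 21-day Caco-2 cultures verified with Lucifer Yellow. Chamber concentrations quantified chromatographically to derive Papp in both directions and their B-A/A-B efflux ratio.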
# [2] = target: T1, recombinant Btk kinase enzyme (Homo sapiens, UniProt Q06187); assay: In vitro inhibition of Btk kinase activity (ADP-Glo); format: biochemical; conditions: Table 8; ADP-Glo; read-out: IC50 kinase BTK
# T1 construct: purchased SignalChem B10-10H
# Method: To assess Btk kinase activity described herein, SignalChem kinase system was used. Btk kinase activity was determined in the reaction between recombinant Btk kinase enzyme (SignalChem #B10-10H) and Poly (4:1 Glu, Tyr) peptide substrate in the presence of the inhibitor.
# Staurosporine (Abcam Biochemicals, ab146588) was used as a reference inhibitor and 0.1% DMSO in the reaction buffer—as a negative control. The solution of 0.5 mg/mL peptide substrate and 50 &M ATP in the same buffer were added; the solution was incubated for 180 minutes at 37° C. To detect the amount of ATP taken up during the kinase reaction, the equivalent amount of ADP (from the ADP Glo Detection Kit (Promega, #V9101)) was used according to the protocol. The reaction mixture was equilibrated to room temperature. 25 µL of ADP-Glo Reagent were added into each well; the plate was incubated for 40 minutes. 50 μL of Kinase Detection Reagent were added; the plate was incubated for 30 minutes. The luminescence was measured with multimode plate reader (Tecan Infinite M200Pro, Switzerland). IC50 values were calculated using Magellan 7.2 software (Tecan, Switzerland) approximating experimental points by four-parameter logistic model with the optimization by Levenberg-Marquardt.
# [3] = tested on: Mino (mantle cell lymphoma); assay: Antiproliferative activity, Mino cells (Alamar Blue); format: cell-based; conditions: Homo sapiens, Table 10, 72 h, average of several tests
# Method in brief: (§1)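 IC50 values come from a four-parameter logistic fit of Alamar Blue fluorescence (540 nm excitation, 590 nm emission) read 14-16 h after reagent addition. Before that, the lymphoma lines, about 3*10^4 cells per well in 10% FBS RPMI-1640, were incubated with compound for 72 h at 37 °C, keeping final DMSO below 1%.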
# [4] = tested on: Z-138 (mantle cell lymphoma); assay: Antiproliferative activity, Z-138 cells (Alamar Blue); format: cell-based; conditions: Homo sapiens, Table 10, 72 h, average of several tests
# Method in brief: as §1
# [5] = tested on: DOHH2 (follicular lymphoma); assay: Antiproliferative activity, DOHH2 cells (Alamar Blue); format: cell-based; conditions: Homo sapiens, DOHH-2, Table 10, 72 h, average of several tests
# Method in brief: as §1
# [6] = General cytotoxicity on HepG2 cells (CC50; therapeutic index CC50 HepG2/IC50 Mino); format: cell-based; conditions: human, HepG2 cells (hepatocellular carcinoma); Table 10; 72 hours, Alamar Blue; average of several tests
# Method in brief: (§2)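 Alamar Blue viability after 72 h exposure to compounds (final 200 μM–4 μM) gave CC50; HepG2 plated 2*10^4/well in DMEM 24 h beforehand. Therapeutic index expressed as ratio of HepG2 CC50 to Mino antiproliferative IC50.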
# [7] = tested on: HepG2 cells (hepatocellular carcinoma); assay: as above; format: cell-based; conditions: Table 10; therapeutic index
# Method in brief: as §2
# [8] = Stability in human blood plasma; conditions: 10 μM in pooled human blood plasma, incubated 4 hours at 37° C.
# [9] = Chemical stability in artificial gastric fluid (SGF without enzymes); conditions: 10 μM in SGF without enzymes, pH=1.4, 37° C.
# T1 sequence (Q06187 whole entry): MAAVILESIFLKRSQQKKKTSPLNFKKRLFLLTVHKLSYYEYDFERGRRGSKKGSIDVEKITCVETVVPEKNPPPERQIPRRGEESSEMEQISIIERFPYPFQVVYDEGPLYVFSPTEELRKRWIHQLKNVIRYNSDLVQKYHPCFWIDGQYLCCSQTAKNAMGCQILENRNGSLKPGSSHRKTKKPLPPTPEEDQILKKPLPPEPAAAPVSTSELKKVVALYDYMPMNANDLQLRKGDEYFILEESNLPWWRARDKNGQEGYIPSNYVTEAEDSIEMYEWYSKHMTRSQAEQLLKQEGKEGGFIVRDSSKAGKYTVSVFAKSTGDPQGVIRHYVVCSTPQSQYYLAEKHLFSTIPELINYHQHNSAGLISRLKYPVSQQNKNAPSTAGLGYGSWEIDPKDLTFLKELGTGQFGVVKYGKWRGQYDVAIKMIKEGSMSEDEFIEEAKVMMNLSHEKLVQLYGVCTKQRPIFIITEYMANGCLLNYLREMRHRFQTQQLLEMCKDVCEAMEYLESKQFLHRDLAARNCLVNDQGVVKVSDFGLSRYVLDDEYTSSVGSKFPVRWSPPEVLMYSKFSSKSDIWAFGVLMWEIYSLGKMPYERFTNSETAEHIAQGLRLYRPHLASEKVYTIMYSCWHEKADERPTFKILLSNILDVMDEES
SMILES,"Papp A→B at 2 h, 10 μM [1]","Papp B→A at 2 h, 10 μM [1]","efflux ratio at 2 h, 10 μM [1]",IC50 [2],IC50 [3],IC50 [4],IC50 [5],CC50 at 72 h [6],CC50 (HepG2)/IC50 (Mino) [7],"Amount of substance in the sample, % (stability in human blood plasma) [8]",Amount of substance in the sample in % (chemical stability) [9]
"C=CC(=O)N1CCC[C@@H](n2nc(-c3ccc(Oc4ccncc4C(N)=O)cc3)c3cncc(Cl)c32)C1 [BCD-BTK-203, (R)-4-(4-(1-(1-acryloylpiperidin-3-yl)-7-chloro-1H-pyrazolo[4,3-c]pyridin-3-yl)phenoxy)nicotinamide]",9.31 ×10⁻⁶ cm/s,8.4 ×10⁻⁶ cm/s,0.9,1.1 µM,13.6 µM,16 µM,14 µM,61.9 µM,4.55,84.7%,
"C=CC(=O)N1CCC[C@@H](n2nc(-c3ccc(Oc4cccnc4C#N)cc3)c3cncc(Cl)c32)C1 [BCD-BTK-218, 3-(4-{7-chloro-1-[1-(prop-2-enoyl)piperidin-3-yl]-1H-pyrazolo[4,3-c]pyridin-3-yl}phenoxy)pyridine-2-carbonitrile]",20.2 ×10⁻⁶ cm/s,17.4 ×10⁻⁶ cm/s,0.86,0.0555 µM,1.1 µM,8.58 µM,3.55 µM,26.2 µM,23.92,92.0%,
"C=CC(=O)N1CCC[C@@H](n2nc(-c3ccc(C(=O)Nc4ncccc4F)cc3)c3cncc(C#N)c32)C1 [BCD-BTK-235, 4-{7-cyano-1-[(3R)-1-(prop-2-enoyl)piperidin-3-yl]-1H-pyrazolo[4,3-c]pyridin-3-yl}-N-(3-fluoropyridin-2-yl)benzamide]",,,,0.0139 µM,18.6 µM,> 100 µM,> 100 µM,> 100 µM,>5.37,,100%
"C=CC(=O)N1CCC[C@@H](n2nc(-c3ccc(C(=O)Nc4ccc(F)cn4)cc3)c3c(N)ncc(Cl)c32)C1 [BCD-BTK-237, 4-{4-amino-7-chloro-1-[(3R)-1-(prop-2-enoyl)piperidin-3-yl]-1H-pyrazolo[4,3-c]pyridin-3-yl}-N-(5-fluoropyridin-2-yl)benzamide]",6.9 ×10⁻⁶ cm/s,3.5 ×10⁻⁶ cm/s,0.5,0.0126 µM,6.25 µM,6.99 µM,3.25 µM,28.4 µM,4.54,,
"C=CC(=O)N1CCC[C@@H](n2nc(-c3ccc(C(=O)Nc4ccccn4)cc3)c3c(N)ncc(Cl)c32)C1 [BCD-BTK-238, 4-{4-amino-7-chloro-1-[(3R)-1-(prop-2-enoyl)piperidin-3-yl]-1H-pyrazolo[4,3-c]pyridin-3-yl}-N-(pyridin-2-yl)benzamide]",6.75 ×10⁻⁶ cm/s,4.78 ×10⁻⁶ cm/s,0.71,0.0189 µM,10.6 µM,9.44 µM,4.05 µM,24.8 µM,2.34,,100%
"C=CC(=O)N1CC[C@@H](n2nc(-c3ccc(Oc4ccncc4)cc3)c3cncc(Cl)c32)C1 [BCD-BTK-272, (R)-1-(3-(7-chloro-3-(4-(pyridin-4-yloxy)phenyl)-1H-pyrazolo[4,3-c]pyridin-1-yl)pyrrolidin-1-yl)prop-2-en-1-one]",6.3 ×10⁻⁶ cm/s,1.1 ×10⁻⁶ cm/s,0.18,0.0548 µM,6.83 µM,14.9 µM,5.23 µM,17.6 µM,2.57,,100%
